{
  "source": "patent US20150005347A1",
  "about": "“NITROGEN-CONTAINING HETEROCYCLIC DERIVATIVE HAVING 2-IMINO GROUP AND PEST CONTROL AGENT INCLUDING THE SAME” (MEIJI SEIKA PHARMA CO., LTD., priority 2012, published 2015)",
  "type_in_all_cases": "in vivo",
  "key": {"[1]": {"test_system": "Ctenocephalides felis", "assay": "Pest control test of Ctenocephalides felis on the body surface of a dog", "conditions": "72 h, read-out: mortality of insects", "procedure": "Test Example 26 Pest Control Test of Ctenocephalides felis\nThree petri dishes with a diameter of 9 cm and a height of 1 cm were adhered to the back of a dog. Compound 1-20 of the present invention was dissolved in ethanol so as to be 5.35 mg/mL, and the mixture was added dropwise to the body surface of the dog in the petri dish. The petri dish was sufficiently dried, and then twenty insects of Ctenocephalides felis were released thereto. Each dog was housed in a cage and reared under conditions of 10 hours of light period and 14 hours of dark period at 23° C. Three days after the release, the petri dishes were detached therefrom to measure the numbers of living and dead insects of Ctenocephalides felis and blood-sucking individuals, and the mortality of insects was calculated according to the following equation.\nMortality of insects(%)={number of dead insects/(number of survived insects+number of dead insects)}×100"}, "[2]": {"test_system": "susceptible populations of Sogatella furcifera", "assay": "Soil irrigation test, susceptible populations of Sogatella furcifera", "procedure": "(§1) A rice seedling in pot culture was subjected to soil irrigation treatment with a drug solution of the compound of the present invention at a predetermined concentration, which had been prepared so as to be a 10% acetone water. […] Thereafter, the larvae were left to stand in a thermostatic chamber (16 hours of light period-8 hours of dark period) at 25° C. […] The test was performed in duplicate.\n(§2) Mortality of larvae(%)={number of dead larvae/(number of survived larvae+number of dead larvae)}×100\nFurther, for comparison, the test against a populations of Sogatella furcifera which is highly susceptible to fipronil was performed by the same method as described above, and the results thereof are shown in Table 44.\n(§3) In addition, for the origin of test pests, bugs collected within the city of Odawara in 2010 as the drug resistant Sogatella furcifera, and bugs collected within the city of Chigasaki in 1970 and then successively reared indoors for a long time as the susceptible populations of Sogatella furcifera were used."}, "[3]": {"test_system": "Nilaparvata lugens exhibiting drug resistance to imidacloprid", "conditions": "soil irrigation", "procedure": "Test Example 18 Pest Control Test of Drug-Resistant Nilaparvata lugens\nas §1, §2\nFurther, for the origin of test pests, bugs collected outdoors within the Kumamoto prefecture in 2007 as the drug resistant Nilaparvata lugens, and bugs collected within the Kagoshima prefecture and then successively reared indoors for a long time as the imidacloprid susceptible populations of Nilaparvata lugens were used."}, "[4]": {"test_system": "Musca domestica", "assay": "Pest control test of Musca domestica adults, sucrose pledget", "conditions": "50 ppm in 40% sucrose liquid; four days after release", "procedure": "Test Example 21 Pest Control Test of Musca domestica\nA drug solution of the compound of the present invention, which had been adjusted to be 50 ppm with a 40% sucrose liquid, was adsorbed on a pledget, and the pledget was put into a vial. Two adults reared indoors were released thereto. Thereafter, the adults were left to stand indoors at room temperature of 25° C. […] When two adults were all agonized in death, it was judged to be effective."}, "[5]": {"test_system": "Spodoptera litura", "assay": "Pest control test against Spodoptera litura, cabbage leaf disk foliar spray", "conditions": "Spodoptera litura, foliar", "procedure": "Test Example 2 Pest Control Test Against Spodoptera litura\n(§4) A leaf disk having a diameter of 5.0 cm was cut out from a cabbage in pot culture, and a drug solution of the compound of the present invention at a predetermined concentration, which had been prepared so as to be a 50% acetone water (0.05% Tween20 available), was sprayed to the leaf disk. After an air drying process, third instar larvae were released thereto. Thereafter, the larvae were left to stand in a thermostatic chamber (16 hours of light period-8 hours of dark period) at 25° C. […] Test in duplicate.\nas §2"}, "[6]": {"test_system": "Laodelphax striatella", "assay": "Pest control test of Laodelphax striatella, soil irrigation treatment of rice seedling", "conditions": "soil irrigation treatment", "source_text": "<Soil Irrigation Treatment Test>\nTest Example 10 Pest Control Test of Laodelphax striatellua\nA rice seedling in pot culture was subjected to soil irrigation treatment with a drug solution of the compound of the present invention at a predetermined concentration, which had been prepared so as to be a 10% acetone water. Three days after the treatment, ten second instar larvae of Laodelphax striatella were each released thereto. Thereafter, the larvae were left to stand in a thermostatic chamber (16 hours of light period-8 hours of dark period) at 25° C. […] The test was performed in duplicate.\nas §2"}, "[7]": {"test_system": "Sogatella furcifera exhibiting drug resistance to fipronil", "assay": "Soil irrigation test, Sogatella furcifera exhibiting drug resistance to fipronil", "procedure": "Test Example 19 Pest Control Test of Sogatella furcifera\nas §1, §2, §3"}, "[8]": {"test_system": "Plutella xylostella", "assay": "Plutella xylostella control test, cabbage leaf disk foliar spray", "conditions": "Plutella xylostella, foliar", "procedure": "Test Example 1 Plutella xylostella Control Test\nas §4, with “second” for “third”\nmortality larvae(%)={number of dead larvae/(number of survived larvae+number of dead larvae)}×100"}, "[9]": {"test_system": "Sogatella furcifera exhibiting drug resistance to fipronil", "assay": "Foliar spray test, Sogatella furcifera exhibiting drug resistance to fipronil", "conditions": "96 h, read-out: mortality of larvae", "procedure": "Test Example 17 Pest Control Test of Sogatella furcifera\nA drug solution of the compound of the present invention at a predetermined concentration, which had been prepared so as to be a 10% acetone water (0.05% Tween20 available), was foliar sprayed to a rice seedling in pot culture. […] Thereafter, the larvae were left to stand in a thermostatic chamber (16 hours of light period-8 hours of dark period) at 25° C. […] Test in duplicate.\nas §2\nFurther, for the origin of test pests, insects of Sogatella furcifera collected outdoors within the city of Odawara in 2010 were used."}, "[10]": {"test_system": "susceptible populations of Laodelphax striatella", "assay": "Soil irrigation test, susceptible populations of Laodelphax striatella", "conditions": "Rate 0.005 mg/pot", "procedure": "as §1, §2\nFurther, for comparison, the test against a populations of Laodelphax striatella which is highly susceptible to fipronil was performed by the same method as described above, and the results thereof are shown in Table 45.\nIn addition, for the origin of test pests, bugs collected within the Kumamoto prefecture in 2006 as the drug resistant Laodelphax striatella, and bugs successively reared indoors for a long time as the susceptible populations of Laodelphax striatella were used."}, "[11]": {"conditions": "72 h, read-out: mortality of larvae"}, "[12]": {"conditions": "read-out: % Mortality, Test Example1 Plutella xylostella"}},
  "note": "Where two headings read alike, the source gives them in different places.",
  "data": [
    {"smiles": "FC(F)(F)C(=S)/N=c1\\ccccn1Cc1ccc(Cl)nc1", "note": "[Compound 1-20, N-[1-((6-chloropyridin-3-yl)methyl)pyridin-2(1H)-ylidene]-2,2,2-trifluoroethanethioamide]", "values": [
      {"measurement": "mortality at 5350 µg/mL", "setting": "[1]", "value": 100, "unit": "%"},
      {"measurement": "Insecticidal effects against Sogatella furcifera (mortality of larvae %), Susceptible populations six days after the treatment", "setting": "[2]; Rate 0.005 mg/pot", "value": 75, "unit": "%"},
      {"measurement": "Insecticidal effects against Sogatella furcifera (mortality of larvae %), Susceptible populations six days after the treatment", "setting": "[2]; Rate 0.01 mg/pot", "value": 88, "unit": "%"},
      {"measurement": "insecticidal effects against drug resistant Nilaparvata lugens", "setting": "[3]; imidacloprid-resistant", "value": "high insecticidal effects"},
      {"measurement": "mortality of larvae against drug resistant populations compared with susceptible populations of Nilaparvata lugens", "setting": "[3]; imidacloprid-resistant vs susceptible", "value": "equivalent mortality of larvae"},
      {"measurement": "activity against adults (effective when two adults were all agonized in death)", "setting": "[4]", "value": "all the adults are agonized in death"},
      {"measurement": "mortality at 100 ppm", "setting": "[5]; [11]", "value": "≥ 80", "unit": "%"},
      {"measurement": "mortality at 100 ppm", "setting": "[5]; read-out: % Mortality, Test Example2 Spodoptera litura", "value": 90, "unit": "%"},
      {"measurement": "% Mortality, Test Example 10 Laodelphax striatella", "setting": "[6]; 0.005 mg/pot", "value": 75, "unit": "%"},
      {"measurement": "% Mortality, Test Example 10 Laodelphax striatella", "setting": "[6]; 0.01 mg/pot", "value": 91, "unit": "%"},
      {"measurement": "% Mortality, Test Example 10 Laodelphax striatella", "setting": "[6]; 0.05 mg/pot", "value": 100, "unit": "%"},
      {"measurement": "Insecticidal effects against Sogatella furcifera (mortality of larvae %), Drug resistant populations six days after the treatment", "setting": "[7]; Rate 0.005 mg/pot", "value": 53, "unit": "%"},
      {"measurement": "Insecticidal effects against Sogatella furcifera (mortality of larvae %), Drug resistant populations six days after the treatment", "setting": "[7]; Rate 0.01 mg/pot", "value": 88, "unit": "%"},
      {"measurement": "insecticidal effects against drug resistant Sogatella furcifera", "setting": "[7]; fipronil-resistant", "value": "high insecticidal effects"},
      {"measurement": "mortality of larvae against drug resistant populations compared with susceptible populations of Sogatella furcifera", "setting": "[7]; fipronil-resistant vs susceptible", "value": "equivalent mortality of larvae"},
      {"measurement": "mortality at 100 ppm", "setting": "[8]; [11]", "value": "≥ 80", "unit": "%"},
      {"measurement": "mortality at 5 ppm", "setting": "[8]; [12]", "value": 50, "unit": "%"},
      {"measurement": "mortality at 20 ppm", "setting": "[8]; [12]", "value": 100, "unit": "%"},
      {"measurement": "mortality at 100 ppm", "setting": "[8]; [12]", "value": 100, "unit": "%"},
      {"measurement": "mortality at 20 ppm", "setting": "[9]", "value": "≥ 80", "unit": "%"},
      {"measurement": "Insecticidal effects against Laodelphax striatella (mortality of larvae %), Susceptible populations six days after the treatment", "setting": "[10]", "value": 85, "unit": "%"}
    ]}
  ]
}
